Data as given in ChEMBL document CHEMBL1201862, “PubChem BioAssay data set” (2004).
Calls of active or inactive are those of the source.

Tests used:
[1] = target: T1, Corticotropin-releasing factor receptor 2/Corticotropin-releasing factor-binding protein (Homo sapiens, UniProt P24387+Q13324); assay: activators of CRF receptor 2 with binding protein – uHTS hits, confirmation (AID 602473); type: functional; conditions: read-out: EC50_Mean
T1 sequence (Q13324 whole entry): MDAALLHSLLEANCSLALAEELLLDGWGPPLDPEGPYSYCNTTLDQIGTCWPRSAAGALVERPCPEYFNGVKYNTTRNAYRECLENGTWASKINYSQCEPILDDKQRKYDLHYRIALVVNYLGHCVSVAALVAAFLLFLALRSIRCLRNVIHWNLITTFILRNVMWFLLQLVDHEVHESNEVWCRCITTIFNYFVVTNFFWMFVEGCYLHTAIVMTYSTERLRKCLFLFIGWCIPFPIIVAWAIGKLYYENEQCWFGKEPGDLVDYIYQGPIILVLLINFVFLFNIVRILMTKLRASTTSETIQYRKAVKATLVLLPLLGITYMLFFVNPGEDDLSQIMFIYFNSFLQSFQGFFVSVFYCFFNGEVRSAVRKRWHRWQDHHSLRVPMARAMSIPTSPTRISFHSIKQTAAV
T1 sequence (P24387 whole entry): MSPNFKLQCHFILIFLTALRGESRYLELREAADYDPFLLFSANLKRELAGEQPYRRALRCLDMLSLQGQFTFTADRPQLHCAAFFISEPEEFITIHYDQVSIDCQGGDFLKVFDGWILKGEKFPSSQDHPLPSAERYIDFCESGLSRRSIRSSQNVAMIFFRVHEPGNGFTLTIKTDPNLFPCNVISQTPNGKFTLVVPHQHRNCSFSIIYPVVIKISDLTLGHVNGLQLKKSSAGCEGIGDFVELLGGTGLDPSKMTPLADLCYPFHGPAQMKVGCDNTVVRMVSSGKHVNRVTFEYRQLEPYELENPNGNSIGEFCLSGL

[2] = target: T1, Corticotropin-releasing factor receptor 2/Corticotropin-releasing factor-binding protein; assay: Dose Response confirmation of uHTS hits for small molecule antagonists of the CRF-binding protein and CRF-R2 receptor complex.; type: functional; conditions: read-out: IC50_Mean
[3] = Luminescence-based cell-based high throughput dose response assay to identify activators of the DAF-12 from the parasite S. stercoralis (ssDAF-12).; type: functional
[4] = target: T2, Oxysterols receptor LXR-beta (Homo sapiens, UniProt P55055); assay: LXR agonists, Gal4 luciferase reporter, dose response, counter-screen for ssDAF-12 agonist project, cell-based, luminescence, HEK293, S. stercoralis campaign (AID 720737); type: functional; conditions: read-out: IC50 (the source's name)
T2 sequence (P55055 whole entry): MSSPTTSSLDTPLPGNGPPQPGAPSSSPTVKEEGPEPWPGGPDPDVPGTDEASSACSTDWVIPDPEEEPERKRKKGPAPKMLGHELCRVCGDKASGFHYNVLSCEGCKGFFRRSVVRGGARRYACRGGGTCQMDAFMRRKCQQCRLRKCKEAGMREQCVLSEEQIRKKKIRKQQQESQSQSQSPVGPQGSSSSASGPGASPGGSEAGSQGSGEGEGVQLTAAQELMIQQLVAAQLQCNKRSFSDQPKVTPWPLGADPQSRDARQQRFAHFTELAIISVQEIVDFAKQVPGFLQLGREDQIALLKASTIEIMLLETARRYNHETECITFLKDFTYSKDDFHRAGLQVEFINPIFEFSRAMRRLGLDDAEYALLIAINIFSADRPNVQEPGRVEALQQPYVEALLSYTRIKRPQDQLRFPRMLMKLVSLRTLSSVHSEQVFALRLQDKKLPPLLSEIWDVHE

[5] = target: T3, Zinc finger protein mex-5 (Caenorhabditis elegans, UniProt Q9XUB2); assay: potency of MEX-5 RNA-binding blockers – biochemical, C. elegans, fluorescence polarization, dose response (AID 1960)
T3 sequence (Q9XUB2 whole entry): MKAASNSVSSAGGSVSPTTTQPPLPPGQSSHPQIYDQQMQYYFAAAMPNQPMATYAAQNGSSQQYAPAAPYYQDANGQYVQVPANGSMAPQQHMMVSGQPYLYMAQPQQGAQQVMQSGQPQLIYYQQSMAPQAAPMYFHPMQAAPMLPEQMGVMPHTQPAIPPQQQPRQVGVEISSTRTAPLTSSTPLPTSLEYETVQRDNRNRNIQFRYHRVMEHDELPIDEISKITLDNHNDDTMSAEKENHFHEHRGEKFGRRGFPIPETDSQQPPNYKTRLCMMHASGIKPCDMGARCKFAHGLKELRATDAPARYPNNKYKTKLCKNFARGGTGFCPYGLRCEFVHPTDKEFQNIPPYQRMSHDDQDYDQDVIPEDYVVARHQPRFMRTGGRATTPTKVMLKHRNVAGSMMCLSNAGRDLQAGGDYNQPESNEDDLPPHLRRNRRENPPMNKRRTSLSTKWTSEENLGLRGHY

[6] = target: T4, RNA-binding protein pos-1 (Caenorhabditis elegans, UniProt G5EF15); assay: disruptors of C. elegans POS-1 RNA interaction – biochemical, fluorescence polarization, dose response (AID 1964);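 also: purified POS-1 fused to maltose binding protein made in E. coli; potency of compounds blocking POS-1 binding to fluorescent RNA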
T4 sequence (G5EF15 whole entry): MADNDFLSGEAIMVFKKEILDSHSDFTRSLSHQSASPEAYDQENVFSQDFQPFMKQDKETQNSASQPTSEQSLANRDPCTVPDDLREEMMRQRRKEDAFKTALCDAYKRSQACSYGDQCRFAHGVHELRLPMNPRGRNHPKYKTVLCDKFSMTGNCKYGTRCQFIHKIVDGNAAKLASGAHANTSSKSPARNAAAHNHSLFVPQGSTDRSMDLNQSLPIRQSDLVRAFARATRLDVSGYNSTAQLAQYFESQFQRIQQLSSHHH

[7] = HIV-1 Vif–A3G interaction blockers – biochemical, TR-FRET, GST-Vif 1-94, biotin-A3G peptide, dose response retest, primary screen (AID 1117319); type: functional;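 also: TR-FRET signal of purified GST-Vif binding a biotinylated A3G peptide; inhibitors lower the FRET signal by blocking Vif and A3G binding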
Protein Tat = target: T5, Protein Tat (Human immunodeficiency virus type 1 group M subtype B (isolate HXB2)(HIV-1), UniProt P04608); type: functional;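 also: tat binding to TAR RNA read out by fluorescence polarization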
T5 sequence (P04608 whole entry): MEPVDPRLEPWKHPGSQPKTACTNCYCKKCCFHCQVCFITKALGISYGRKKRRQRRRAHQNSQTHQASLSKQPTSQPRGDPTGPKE

SMILES: CCCn1nc(C(=O)Nc2ccc3nc(C)sc3c2)c2ccccc2c1=O
- EC50 [1]: > 53 µM (inactive)
- IC50 [2]: > 47.1 µM (inactive)
- IC50 [3]: > 67.5 µM (inactive)
- EC50 [4]: > 67.5 µM (inactive)
- EC50 [5]: > 300 µM (not active)
- EC50 [6]: > 300 µM (not active)

SMILES: Cc1ccn2cc(CNS(=O)(=O)c3ccc(Cl)s3)nc2c1
- IC50 [7]: > 100 µM (active)
- IC50 (Protein Tat): > 100 µM (active)

SMILES: O=C(Nc1ccccc1C(=O)NC(Cc1c[nH]c2ccccc12)C(=O)O)c1ccco1 (centres undefined)
- IC50 (Protein Tat): > 100 µM (active)
